Results on six molecules are retold here after patent US10118947B2, “Modulation of structured polypeptide specificity” (BICYCLE THERAPEUTICS LIMITED, priority 2013, dated 2018).

In the experiment the target is T1, human plasma Kallikrein (Homo sapiens, UniProt P03952).
T1 construct: purchased Stratech, UK
The experiment is described as follows: Functional enzyme inhibition assay with fluorogenic substrate Z-PheArg-AMC, human plasma Kallikrein. Format: biochemical. The procedure: Functional enzyme assays were conducted in 10 mM Tris HCl, 150 mM NaCl, 10 mM MgCl2, 1 mM CaCl2) and 1 mg/mL BSA (all Sigma UK) pH7.4 at 25° C. in solid black 96 well plates. Briefly 26.5 pM human plasma Kallikrein (purchased from Stratech, UK) or 500 pM rat plasma Kallikrein (expressed and purified in house) were incubated in the absence or presence of increasing concentrations of test peptide for 15 minutes before addition of the fluorogenic substrate Z-PheArg-AMC (Enzo Lifesciences UK) to a final assay concentration of 100 μM in 4% DMSO. Release of AMC was measured using a Pherastar FS (BMG Labtech), excitation 360 nm, emission 460 nm. The rate of the linear phase of the reaction, typically 5 to 45 minutes, was calculated in MARS data analysis software (BMG labtech). The rate was then used to calculate the IC50 and Ki in Prism (GraphPad). A four parameter inhibition non-linear regression equation was used to calculate the IC50.
Peptides were dissolved as the TFA-salts in their powder form, and stock solutions were usually prepared in water. All solutions were centrifuged and filtered ([…] syringe filters) prior absorption measurement at 280 nm. […] For peptides containing non-natural amino acids with suspected chromophoric properties (i.e. NorHar, 4PhenylPro, 3Pal, 4Pal, Tic, 4GuanPhe, 4,4-BPAI, 3,3-DPA, 1NAI, 2NAI, 4BenzylPro, Ind) concentrations were determined by weighing the powder and dissolving the peptide in a defined quantity of water.

SMILES strings stand for the structures. Read-outs that look alike come from different tables or passages of the source. Numbered stars: 1 amine (or outer) side, 2 acyl side, 3 side chain; on linkers, the order of the positions; unused ones are H or OH. Bridge positions count the residues as written; N and C are the ends. Square brackets hold non-standard residues; d marks the D form. Peptide text beside a SMILES is read from it. TBMB = c1c(C[*:1])cc(C[*:3])cc1C[*:2]; Chg = N[C@H](C(=O)O)C1CCCCC1; NMeS = CN[C@@H](CO)C(=O)O; Sar = CNCC(=O)O

As a reminder, the Ki is a measure of affinity in units of concentration, obtained from inhibition or displacement.

T1 sequence (P03952 20-638): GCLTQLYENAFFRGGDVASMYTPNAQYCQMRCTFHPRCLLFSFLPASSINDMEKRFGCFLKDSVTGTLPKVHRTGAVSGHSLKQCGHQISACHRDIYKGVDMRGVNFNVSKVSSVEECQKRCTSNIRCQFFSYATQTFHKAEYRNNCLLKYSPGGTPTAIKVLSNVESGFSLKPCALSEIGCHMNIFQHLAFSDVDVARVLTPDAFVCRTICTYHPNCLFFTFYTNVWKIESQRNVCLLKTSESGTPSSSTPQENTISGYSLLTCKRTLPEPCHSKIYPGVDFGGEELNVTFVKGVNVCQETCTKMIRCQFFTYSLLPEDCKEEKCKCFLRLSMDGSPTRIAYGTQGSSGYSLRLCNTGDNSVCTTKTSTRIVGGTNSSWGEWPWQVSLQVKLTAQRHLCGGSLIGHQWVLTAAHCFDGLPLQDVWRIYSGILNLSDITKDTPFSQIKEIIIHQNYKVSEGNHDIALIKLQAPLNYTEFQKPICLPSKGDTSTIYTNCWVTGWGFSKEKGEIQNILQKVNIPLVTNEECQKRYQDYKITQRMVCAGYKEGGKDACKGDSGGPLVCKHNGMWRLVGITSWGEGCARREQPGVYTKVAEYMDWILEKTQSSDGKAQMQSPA

On to `CC(C)C[C@@H]1NC(=O)[C@H](CC(=O)O)NC(=O)[C@H](CCC(N)=O)NC(=O)[C@H](Cc2c[nH]cn2)NC(=O)[C@H](C)NC(=O)[C@@H]2CSCc3cc(cc(c3)CSC[C@@H](C(=O)N[C@@H](C)C(N)=O)NC1=O)CSC[C@H](NC(=O)[C@H](C)N)C(=O)N[C@@H](C)C(=O)N[C@@H](Cc1c[nH]c3ccccc13)C(=O)N1CCC[C@H]1C(=O)N[C@@H](C)C(=O)N[C@@H](CCCNC(=N)N)C(=O)N2` [06-34-03-Ala1,6] (H-ACAWPARCAHQDLCA-NH2; linker 2-8-14 via TBMB), for which the “potency / binding to kallikrein (in words)” value is on record as “retained full potency compared to the parent”.

Turning to `CC(C)C[C@@H]1NC(=O)[C@H](CC(=O)O)NC(=O)[C@H](CCC(N)=O)NC(=O)[C@H](Cc2c[nH]cn2)NC(=O)CN(C)C(=O)[C@@H]2CSCc3cc(cc(c3)CSC[C@H](NC(=O)[C@H](C)N)C(=O)N(C)CC(=O)N[C@@H](Cc3c[nH]c4ccccc34)C(=O)N3CCC[C@H]3C(=O)N[C@@H](C)C(=O)N[C@@H](CCCNC(=N)N)C(=O)N2)CSC[C@@H](C(=O)N[C@@H](C)C(N)=O)NC1=O` [06-34-03-N-MeGly1,6, ACN-MeGWPARC(N-MeG)HQDLCA] (H-AC[Sar]WPARC[Sar]HQDLCA-NH2; linker 2-8-14 via TBMB; N-terminus and C-terminus assumed), the “potency / binding to kallikrein (in words)” value is on record as “reduction in potency”.

Under “Ki human PK (nM), Table 6”, `CC(C)C[C@@H]1NC(=O)[C@H](CC(=O)O)NC(=O)[C@H](CCC(N)=O)NC(=O)[C@H](Cc2c[nH]cn2)NC(=O)[C@H](CC(C)C)NC(=O)[C@@H]2CSCc3cc(cc(c3)CSC[C@H](NC(=O)[C@H](C)N)C(=O)N(C)[C@@H](CO)C(=O)N[C@@H](Cc3c[nH]c4ccccc34)C(=O)N3CCC[C@H]3C(=O)N[C@@H](C)C(=O)N[C@@H](CCCNC(=N)N)C(=O)N2)CSC[C@@H](C(=O)N[C@@H](C)C(N)=O)NC1=O` [06-34-18-N-MeSer1] (H-AC[NMeS]WPARCLHQDLCA-NH2; linker 2-8-14 via TBMB) gave a Ki of 0.56 nM.

Take `CC(=O)N[C@H]1CSCc2cc3cc(c2)CSC[C@H](NC(=O)[C@H](CCCNC(=N)N)NC(=O)[C@H](C)NC(=O)[C@@H]2CCCN2C(=O)[C@H](Cc2c[nH]c4ccccc24)NC(=O)[C@H](CO)NC1=O)C(=O)N[C@@H](C1CCCCC1)C(=O)N[C@@H](Cc1c[nH]cn1)C(=O)N[C@@H](CCC(N)=O)C(=O)N[C@@H](CC(=O)O)C(=O)N[C@@H](CC(C)C)C(=O)N[C@H](C(N)=O)CSC3` [Ac-(06-34-18) Chg6] (Ac-CSWPARC[Chg]HQDLC-NH2; linker 1-7-13 via TBMB): the Ki (Table 24a, residue 6 modification in the context of Ac-(06-34-18), read-out: Ki (nM) Ac-(06-34-18)) came out at 0.13 nM.

Consider `CC(=O)N[C@H]1CSCc2cc3cc(c2)CSC[C@H](NC(=O)[C@H](CCCNC(=N)N)NC(=O)[C@@H](C)NC(=O)[C@@H]2CCCN2C(=O)[C@H](Cc2c[nH]c4ccccc24)NC(=O)[C@H](CO)NC1=O)C(=O)N[C@@H](CC(C)C)C(=O)N[C@@H](Cc1c[nH]cn1)C(=O)N[C@@H](CCC(N)=O)C(=O)N[C@@H](CC(=O)O)C(=O)N[C@@H](CC(C)C)C(=O)N[C@H](C(N)=O)CSC3` [Ac-(06-34-18) D-Ala4], for which the “reduction in potency/affinity compared to wildtype” value is recorded as 7000 fold.

For the molecule `CC(=O)N[C@H]1CSCc2cc3cc(c2)CSC[C@H](NC(=O)[C@H](CCCNC(=N)N)NC(=O)[C@H](C)NC(=O)[C@@H]2CCCN2C(=O)[C@H](Cc2c[nH]c4ccccc24)NC(=O)[C@H](CO)NC1=O)C(=O)N[C@H](C)C(=O)N[C@@H](Cc1c[nH]cn1)C(=O)N[C@@H](CCC(N)=O)C(=O)N[C@@H](CC(=O)O)C(=O)N[C@@H](CC(C)C)C(=O)N[C@H](C(N)=O)CSC3` [Ac-(06-34-18) D-Ala6] (Ac-CSWPARC[dA]HQDLC-NH2; linker 1-7-13 via TBMB), the Ki (Table 3c, D-Alanine scan in Loop2, read-out: Ki) worked out at 1040 nM. Further, the “F (Kivar/KiWT)” value (Table 3c, ratio of Ki to wild type) was 2469.
